PubChem BioAssay (NCI)
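Growth conditions: 96-well plates. Treatment: test compound, 48 hours, 5 concentrations. Analysis: linear interpolation between bracketing concentrations; unreached endpoints set to highest concentration. The concentration for 50% growth inhibition is given as GI50. TGI: total growth inhibition.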

Experiments:
Experiment in all cases: NCI tumour cell line growth inhibition, 48 h
NCI-H23 lung = system: NCI-H23 lung
SK-OV-3 ovarian = system: SK-OV-3 ovarian
LOX IMVI melanoma = system: LOX IMVI melanoma
SK-MEL-28 melanoma = system: SK-MEL-28 melanoma
SN12C renal = system: SN12C renal
OVCAR-8 ovarian = system: OVCAR-8 ovarian
MOLT-4 leukemia = system: MOLT-4 leukemia
RXF 393 renal = system: RXF 393 renal
ACHN renal = system: ACHN renal
UO-31 renal = system: UO-31 renal

Compound	TGI (NCI-H23 lung) [µM]	TGI (SK-OV-3 ovarian) [µM]	TGI (LOX IMVI melanoma) [µM]	TGI (SK-MEL-28 melanoma) [µM]	TGI (SN12C renal) [µM]	TGI (OVCAR-8 ovarian) [µM]	TGI (MOLT-4 leukemia) [µM]	TGI (RXF 393 renal) [µM]	TGI (ACHN renal) [µM]	TGI (UO-31 renal) [µM]	GI50 (NCI-H23 lung) [µM]	GI50 (SK-OV-3 ovarian) [µM]	GI50 (LOX IMVI melanoma) [µM]	GI50 (SK-MEL-28 melanoma) [µM]	GI50 (SN12C renal) [µM]	GI50 (OVCAR-8 ovarian) [µM]	GI50 (MOLT-4 leukemia) [µM]	GI50 (RXF 393 renal) [µM]	GI50 (ACHN renal) [µM]	GI50 (UO-31 renal) [µM]
CCC(Oc1ccc(OC)c2c1C(=O)CCC2)C(=O)O (stereo not given)	> 100	> 100	> 100	> 100	> 100	> 100	> 100	> 100	> 100	> 100	–	–	–	–	–	–	–	–	–	–
CN1CCCc2nc3ccccc3n2C1	> 100	> 100	> 100	> 100	> 100	> 100	> 100	> 100	> 100	> 100	–	–	–	–	–	–	–	–	–	–
S=C(Sc1ccc(Cl)cc1)Sc1ccc(Cl)cc1	3.78	31.8	2.37	3.49	5.34	12.6	4.53	3.87	11	2.63	1.75	6.05	1.13	1.89	2.12	3.66	1.27	2.04	3.23	1.31
C[C@]12CCc3nc(Nc4ccc(O)cc4)sc3C1=CC[C@@H]1[C@@H]2CC[C@]2(C)/C(=N/NC(N)=S)CC[C@@H]12	4.36	3.25	2.86	3.4	3.37	4.55	3.39	2.69	2.99	2.57	1.8	1.62	1.52	1.51	1.53	1.74	0.47	1.23	1.59	1.3
O=[N+]([O-])c1cccnc1S(=O)(=O)c1ccccc1	30.3	44.7	15.7	34.6	23.5	26.8	> 25.7	3.77	11.4	14	–	–	–	–	–	–	–	–	–	–
CC(C)(C)C1=NO[C@H]2[C@@H](NC(=O)c3ccccc3)CC[C@@H]12	> 100	> 100	> 100	> 100	> 100	> 100	> 100	> 100	> 100	> 100	–	–	–	–	–	–	–	–	–	–
CC(C)(C)O/N=C/c1cc(NC(=S)c2ccccc2)ccc1Cl	34.1	> 100	30.4	32.5	26	35.6	39.7	27.9	32.7	31.6	–	–	–	–	–	–	–	–	–	–
CNC(=O)OCc1nc(SSc2nc(COC(=O)NC)c(COC(=O)NC)n2C)n(C)c1COC(=O)NC	> 100	> 100	> 100	> 100	> 100	> 100	> 100	> 100	> 100	> 100	–	–	–	–	–	–	–	–	–	–
Oc1cn(-c2ccc(Cl)cc2)nc1-c1n[nH]c(=S)n1-c1ccc(F)cc1	33	> 100	43	> 100	50.3	> 100	> 100	> 100	> 100	> 100	15.7	> 100	16.8	20.4	16.9	27.3	14.7	28	28.8	25
Cn1cc(-c2ccc3ncc(-c4ccc(CC(=O)Nc5cc(C(C)(C)C)nn5C)cc4)cc3c2)cn1	> 20	> 20	> 20	> 20	> 20	7.08	3.25	> 20	> 20	2.08	1.1	0.934	1.23	3.57	0.854	0.736	0.706	1.14	0.689	0.331
COCc1cc2c(s1)C(=O)C1=C(C2=O)C2(C=C(Br)C(=O)C(Br)=C2)CCN1	9.51	30.7	7.68	20.3	20.4	14.8	8.29	6.94	18	25.4	–	–	–	–	–	–	–	–	–	–
